Each structure is given as a SMILES string.

What is called IC50 is the concentration at which inhibition is half-maximal.
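Also: biochemical assay with HTRF read-out.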

JAK1 (recombinant purified GST-tagged catalytic domain), sequence (P23458 875-1153): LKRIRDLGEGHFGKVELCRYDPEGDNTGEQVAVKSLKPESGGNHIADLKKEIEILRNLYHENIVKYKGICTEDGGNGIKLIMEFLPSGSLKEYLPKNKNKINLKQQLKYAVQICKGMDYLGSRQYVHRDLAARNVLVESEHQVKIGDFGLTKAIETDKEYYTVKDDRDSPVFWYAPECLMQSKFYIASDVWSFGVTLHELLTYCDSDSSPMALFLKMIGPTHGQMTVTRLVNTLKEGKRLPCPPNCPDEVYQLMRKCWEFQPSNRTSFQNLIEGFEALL

The experiment addresses JAK1 (recombinant purified GST-tagged catalytic domain) (Homo sapiens (Human), UniProt P23458). Nature of the experiment: biochemical.
With `N#C[C@H]1C[C@@H](C(=O)N2CC(F)(F)C2)CC[C@@H]1n1cc(C(N)=O)c(Nc2ccc(Cl)cc2)n1` (single isomer, unassigned) [Example 35-6, 3-[(4-chlorophenyl)amino]-1-{(1S,2S,4S or 1R,2R,4R)-2-cyano-4-[(3,3-difluoroazetidin-1-yl)carbonyl]cyclohexyl}-1H-pyrazole-4-carboxamide], the IC50 came to 62 nM.

`N#C[C@H]1C[C@@H](C(=O)N[C@H](C2CC2)C(F)(F)F)CC[C@@H]1n1cc(C(N)=O)c(Nc2ccc(Cl)cc2)n1` (single isomer, unassigned) [Example 35-14, 3-[(4-chlorophenyl)amino]-1-[(1S,2S,4S or 1R,2R,4R)-2-cyano-4-{[(1R)-1-cyclopropyl-2,2,2-trifluoroethyl]carbamoyl}cyclohexyl]-1H-pyrazole-4-carboxamide]: the IC50 stood at 9 nM. Regarding `N#C[C@@H]1C[C@H](C(=O)N2CC(F)(F)C2)CC[C@H]1n1cc(C(N)=O)c(Nc2ccc(Cl)cc2)n1` (single isomer, unassigned) [Example 35-15, 3-[(4-chlorophenyl)amino]-1-{(1R,2R,4R or 1S,2S,4S)-2-cyano-4-[(3,3-difluoroazetidin-1-yl)carbonyl]cyclohexyl}-1H-pyrazole-4-carboxamide], the half-inhibitory concentration (IC50) stood at 3 nM. In the case of `N#C[C@@H]1C[C@H](C(=O)N[C@@H](C2CC2)C(F)(F)F)CC[C@H]1n1cc(C(N)=O)c(Nc2ccc(Cl)cc2)n1` (single isomer, unassigned) [Example 35-16, 3-[(4-chlorophenyl)amino]-1-[(1R,2R,4R or 1S,2S,4S)-2-cyano-4-{[(1S)-1-cyclopropyl-2,2,2-trifluoroethyl]carbamoyl}cyclohexyl]-1H-pyrazole-4-carboxamide] it was 9 nM. Under `N#C[C@H]1C[C@@H](C(=O)N[C@@H](C2CC2)C(F)(F)F)CC[C@@H]1n1cc(C(N)=O)c(Nc2ccc(Cl)cc2)n1` (single isomer, unassigned) [Example 35-24, 3-[(4-chlorophenyl)amino]-1-[(1S,2S,4S or 1R,2R,4R)-2-cyano-4-{[(1S)-1-cyclopropyl-2,2,2-trifluoroethyl]carbamoyl}cyclohexyl]-1H-pyrazole-4-carboxamide] stands 180 nM; under `N#C[C@@H]1C[C@H](C(=O)N[C@H](C2CC2)C(F)(F)F)CC[C@H]1n1cc(C(N)=O)c(Nc2ccc(Cl)cc2)n1` (single isomer, unassigned) [Example 35-25, 3-[(4-chlorophenyl)amino]-1-[(1R,2R,4R or 1S,2S,4S)-2-cyano-4-{[(1R)-1-cyclopropyl-2,2,2-trifluoroethyl]carbamoyl}cyclohexyl]-1H-pyrazole-4-carboxamide], 21 nM. In the case of `N#C[C@H]1C[C@@H](C(=O)N2CCC(F)(F)C2)CC[C@@H]1n1cc(C(N)=O)c(Nc2ccc(Cl)cc2)n1` (single isomer, unassigned) [Example 35-28, 3-[(4-chlorophenyl)amino]-1-{(1S,2S,4S or 1R,2R,4R)-2-cyano-4-[(3,3-difluoropyrrolidin-1-yl)carbonyl]cyclohexyl}-1H-pyrazole-4-carboxamide] it was 3 nM; in that of `CC1(CNC(=O)[C@@H]2CC[C@@H](n3cc(C(N)=O)c(Nc4ccc(Cl)cc4)n3)[C@H](C#N)C2)COC1` (single isomer, unassigned) [Example 35-29, 3-[(4-chlorophenyl)amino]-1-[(1R,2R,4R or 1S,2S,4S)-2-cyano-4-{[(3-methyloxetan-3-yl)methyl]carbamoyl}cyclohexyl]-1H-pyrazole-4-carboxamide], 38 nM; in that of `CC1(CNC(=O)[C@H]2CC[C@H](n3cc(C(N)=O)c(Nc4ccc(Cl)cc4)n3)[C@@H](C#N)C2)COC1` (single isomer, unassigned) [Example 35-31, 3-[(4-chlorophenyl)amino]-1-[(1S,2S,4S or 1R,2R,4R)-2-cyano-4-{[(3-methyloxetan-3-yl)methyl]carbamoyl}cyclohexyl]-1H-pyrazole-4-carboxamide], 9 nM.

Values taken from patent US8962608B2, “Cycloalkylnitrile pyrazole carboxamides as janus kinase inhibitors” (Merck Sharp & Dohme Corp., priority 2011, dated 2015).
